Our source for the residual activity values is the kinase profiling compilation of Christmann-Franck et al. (2016).

The structures appear in SMILES notation.

Common to all, as to assay: radiometric filter-binding kinase assay, Kinaseprofiler
The subject of assay [1] is MARK1 (human), Q9P0L2 [V16E/T20S]. The settings on record: ATP 10 µM.
Assay [2] has as its system MERTK (human), Q12866 [H628Q/R794A]. Conditions: ATP 45 µM.
Assay [3] deals with RAF1 (human), P04049 [Y340D/Y341D]. The settings on record: ATP 45 µM.
Assay [4] concerns AKT2 (human), P31751 [S474D]. Conditions: ATP 200 µM.
AKT2 (human), P31751 [S474D], sequence (P31751 whole entry S474D, looked up): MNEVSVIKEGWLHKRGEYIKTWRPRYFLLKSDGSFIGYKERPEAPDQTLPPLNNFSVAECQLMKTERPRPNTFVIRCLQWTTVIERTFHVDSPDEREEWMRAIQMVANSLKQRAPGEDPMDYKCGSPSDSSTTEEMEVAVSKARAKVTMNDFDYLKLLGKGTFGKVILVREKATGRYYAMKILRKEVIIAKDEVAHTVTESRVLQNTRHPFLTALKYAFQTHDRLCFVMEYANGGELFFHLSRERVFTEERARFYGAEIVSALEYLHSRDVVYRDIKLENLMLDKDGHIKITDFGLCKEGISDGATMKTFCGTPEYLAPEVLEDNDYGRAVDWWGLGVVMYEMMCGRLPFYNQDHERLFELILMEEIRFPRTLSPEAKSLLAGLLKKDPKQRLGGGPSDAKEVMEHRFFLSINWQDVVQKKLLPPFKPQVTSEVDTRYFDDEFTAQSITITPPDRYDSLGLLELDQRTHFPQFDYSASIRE
Assay [5] relates to AURKA (human), O14965 [I31F]. The settings on record: ATP 15 µM.
AURKA (human), O14965 [I31F], sequence (O14965 whole entry, looked up, stated change not applied): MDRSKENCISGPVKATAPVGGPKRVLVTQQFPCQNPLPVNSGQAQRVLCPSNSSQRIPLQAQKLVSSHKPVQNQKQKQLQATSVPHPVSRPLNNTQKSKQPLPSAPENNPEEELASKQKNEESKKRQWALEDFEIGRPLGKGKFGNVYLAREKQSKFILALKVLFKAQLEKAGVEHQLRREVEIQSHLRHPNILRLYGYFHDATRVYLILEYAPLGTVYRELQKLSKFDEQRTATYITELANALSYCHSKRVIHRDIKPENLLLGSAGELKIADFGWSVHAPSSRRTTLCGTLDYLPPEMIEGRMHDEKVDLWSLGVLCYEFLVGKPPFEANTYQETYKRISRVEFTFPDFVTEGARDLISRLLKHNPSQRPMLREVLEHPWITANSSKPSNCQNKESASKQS
For assay [6], the system named is MAPKAPK2 (human), P49137 [A399G]. The settings on record: ATP 90 µM.
MAPKAPK2 (human), P49137 [A399G], sequence (P49137 whole entry A399G, looked up): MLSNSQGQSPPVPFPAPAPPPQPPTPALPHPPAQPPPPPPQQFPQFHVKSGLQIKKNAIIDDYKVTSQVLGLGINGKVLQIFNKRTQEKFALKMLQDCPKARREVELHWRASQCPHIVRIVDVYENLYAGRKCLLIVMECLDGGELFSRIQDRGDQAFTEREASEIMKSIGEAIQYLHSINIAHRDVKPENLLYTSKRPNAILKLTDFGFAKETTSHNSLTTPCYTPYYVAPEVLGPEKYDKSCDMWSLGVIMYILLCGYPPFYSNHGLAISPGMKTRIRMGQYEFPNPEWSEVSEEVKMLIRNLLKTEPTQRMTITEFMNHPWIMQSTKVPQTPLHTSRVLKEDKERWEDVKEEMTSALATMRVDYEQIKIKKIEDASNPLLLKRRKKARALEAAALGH
Assay [7] relates to PRKCH (human), P24723 [V108L/G109R/L392Q]. The settings on record: ATP 45 µM.
PRKCH (human), P24723 [V108L/G109R/L392Q], sequence (P24723 whole entry, looked up, stated change not applied): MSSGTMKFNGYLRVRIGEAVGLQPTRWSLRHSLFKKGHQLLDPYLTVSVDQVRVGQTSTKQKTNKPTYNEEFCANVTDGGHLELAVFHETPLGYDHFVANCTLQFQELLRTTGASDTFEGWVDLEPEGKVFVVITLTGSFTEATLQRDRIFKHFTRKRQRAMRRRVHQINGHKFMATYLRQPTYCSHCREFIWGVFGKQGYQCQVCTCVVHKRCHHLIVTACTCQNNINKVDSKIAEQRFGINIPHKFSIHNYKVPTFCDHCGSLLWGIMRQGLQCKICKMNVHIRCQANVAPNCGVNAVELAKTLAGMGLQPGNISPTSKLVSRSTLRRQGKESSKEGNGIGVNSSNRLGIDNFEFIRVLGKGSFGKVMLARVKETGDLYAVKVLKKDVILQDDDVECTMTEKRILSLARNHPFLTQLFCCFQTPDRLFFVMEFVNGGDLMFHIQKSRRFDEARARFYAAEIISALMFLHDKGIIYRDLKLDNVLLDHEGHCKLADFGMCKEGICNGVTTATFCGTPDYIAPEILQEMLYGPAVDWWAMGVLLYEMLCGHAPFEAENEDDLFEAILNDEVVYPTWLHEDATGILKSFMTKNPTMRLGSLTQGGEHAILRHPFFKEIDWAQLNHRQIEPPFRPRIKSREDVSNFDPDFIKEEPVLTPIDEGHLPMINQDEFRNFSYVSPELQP
Assay [8] has as its system TEC (human), P42680 [F514V]. The settings on record: ATP 120 µM.

TEC (human), P42680 [F514V], sequence (P42680 whole entry, looked up, stated change not applied): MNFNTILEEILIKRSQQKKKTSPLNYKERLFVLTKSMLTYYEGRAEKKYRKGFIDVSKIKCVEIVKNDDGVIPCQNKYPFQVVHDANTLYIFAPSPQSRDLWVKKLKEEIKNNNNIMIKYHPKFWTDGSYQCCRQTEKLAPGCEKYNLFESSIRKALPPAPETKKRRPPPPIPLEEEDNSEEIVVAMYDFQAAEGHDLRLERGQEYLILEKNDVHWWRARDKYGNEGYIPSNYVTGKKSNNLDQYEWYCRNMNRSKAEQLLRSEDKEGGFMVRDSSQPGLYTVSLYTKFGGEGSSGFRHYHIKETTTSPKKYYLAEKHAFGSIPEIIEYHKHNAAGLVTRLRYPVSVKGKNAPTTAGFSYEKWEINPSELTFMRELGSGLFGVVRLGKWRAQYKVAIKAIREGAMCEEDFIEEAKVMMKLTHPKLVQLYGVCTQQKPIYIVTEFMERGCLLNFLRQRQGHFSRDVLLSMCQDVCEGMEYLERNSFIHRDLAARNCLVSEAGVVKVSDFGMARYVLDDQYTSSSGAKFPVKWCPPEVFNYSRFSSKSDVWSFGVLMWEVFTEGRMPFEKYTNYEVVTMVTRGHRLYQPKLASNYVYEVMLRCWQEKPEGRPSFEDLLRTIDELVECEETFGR
MARK1 (human), Q9P0L2 [V16E/T20S], sequence (Q9P0L2 whole entry, looked up, stated change not applied): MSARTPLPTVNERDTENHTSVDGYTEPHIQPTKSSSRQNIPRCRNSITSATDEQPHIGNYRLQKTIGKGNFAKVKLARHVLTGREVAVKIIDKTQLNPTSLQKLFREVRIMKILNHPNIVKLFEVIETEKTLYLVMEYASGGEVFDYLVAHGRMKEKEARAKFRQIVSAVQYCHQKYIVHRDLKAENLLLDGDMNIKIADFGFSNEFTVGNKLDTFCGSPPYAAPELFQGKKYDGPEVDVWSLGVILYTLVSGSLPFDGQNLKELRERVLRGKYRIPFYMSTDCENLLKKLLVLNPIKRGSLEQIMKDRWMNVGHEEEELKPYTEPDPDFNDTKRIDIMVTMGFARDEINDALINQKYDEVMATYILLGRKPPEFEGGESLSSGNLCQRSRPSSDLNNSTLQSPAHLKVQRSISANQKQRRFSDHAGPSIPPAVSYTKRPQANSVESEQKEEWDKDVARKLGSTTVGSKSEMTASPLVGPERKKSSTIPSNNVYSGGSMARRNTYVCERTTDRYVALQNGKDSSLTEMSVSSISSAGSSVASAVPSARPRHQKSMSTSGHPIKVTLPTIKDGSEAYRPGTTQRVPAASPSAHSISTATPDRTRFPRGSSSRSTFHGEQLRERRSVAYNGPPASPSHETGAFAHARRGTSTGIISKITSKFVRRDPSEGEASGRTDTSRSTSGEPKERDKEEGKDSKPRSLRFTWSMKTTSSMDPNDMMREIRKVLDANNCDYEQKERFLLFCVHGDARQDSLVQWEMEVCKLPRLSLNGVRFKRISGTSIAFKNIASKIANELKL
MERTK (human), Q12866 [H628Q/R794A], sequence (Q12866 whole entry, looked up, stated change not applied): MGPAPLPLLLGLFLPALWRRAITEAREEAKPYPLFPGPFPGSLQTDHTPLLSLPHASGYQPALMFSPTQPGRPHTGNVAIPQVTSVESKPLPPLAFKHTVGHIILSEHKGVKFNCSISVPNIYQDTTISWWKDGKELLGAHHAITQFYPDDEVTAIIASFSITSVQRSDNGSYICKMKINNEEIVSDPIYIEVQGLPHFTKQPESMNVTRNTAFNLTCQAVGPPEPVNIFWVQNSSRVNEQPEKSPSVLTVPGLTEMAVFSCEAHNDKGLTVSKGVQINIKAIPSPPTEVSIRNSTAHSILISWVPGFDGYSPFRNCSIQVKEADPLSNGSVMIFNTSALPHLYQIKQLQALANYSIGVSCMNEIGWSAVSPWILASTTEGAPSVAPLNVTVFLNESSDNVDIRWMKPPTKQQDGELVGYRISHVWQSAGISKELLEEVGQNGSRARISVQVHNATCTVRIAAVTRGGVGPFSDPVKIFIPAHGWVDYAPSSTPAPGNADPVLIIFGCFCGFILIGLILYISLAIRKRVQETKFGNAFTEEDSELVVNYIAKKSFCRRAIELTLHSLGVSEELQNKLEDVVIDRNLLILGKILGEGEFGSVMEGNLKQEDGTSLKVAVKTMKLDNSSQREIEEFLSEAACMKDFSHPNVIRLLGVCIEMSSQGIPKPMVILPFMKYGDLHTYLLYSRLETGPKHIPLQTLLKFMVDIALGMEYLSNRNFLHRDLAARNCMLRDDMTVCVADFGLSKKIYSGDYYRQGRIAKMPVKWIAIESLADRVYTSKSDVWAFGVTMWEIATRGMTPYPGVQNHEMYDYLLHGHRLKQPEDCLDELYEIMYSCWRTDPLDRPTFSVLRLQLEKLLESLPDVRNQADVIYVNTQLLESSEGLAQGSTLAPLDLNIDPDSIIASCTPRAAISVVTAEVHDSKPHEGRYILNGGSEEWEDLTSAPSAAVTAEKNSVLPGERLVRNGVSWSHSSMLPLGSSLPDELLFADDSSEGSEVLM

For the molecule `CN[C@@H]1C[C@H]2O[C@@](C)([C@@H]1OC)n1c3ccccc3c3c4c(c5c6ccccc6n2c5c31)C(=O)NC4`, the residual activity is 0% in assay [1] (compound 1.0 µM), 0% in assay [2] (compound 10.0 µM) and 80% in assay [3] (compound 10.0 µM).
With `O=C1c2ccccc2-c2n[nH]c3cccc1c23`, the residual activity was 104% in assay [4] (compound 1.0 µM); 105% in assay [4] (compound 10.0 µM); 19% in assay [5] (compound 1.0 µM); 2% in assay [5] (compound 10.0 µM); 79% in assay [6] (compound 1.0 µM); 69% in assay [6] (compound 10.0 µM). For the same molecule, the residual activity in assay [1] (compound 1.0 µM) came to 38%; in assay [1] (compound 10.0 µM) it was 6%; in assay [2] (compound 1.0 µM), 22%; in assay [2] (compound 10.0 µM) it was 9%; in assay [7] (compound 1.0 µM), 86%; in assay [7] (compound 10.0 µM), 82%. In addition, the residual activity turned out to be 69% in assay [3] (compound 1.0 µM), 61% in assay [3] (compound 10.0 µM), 89% in assay [8] (compound 1.0 µM) and 57% in assay [8] (compound 10.0 µM).
For `O=C1Nc2ccccc2/C1=C1\Nc2ccccc2\C1=N/O`, the residual activity in assay [4] (compound 1.0 µM) was found to be 98%; in assay [4] (compound 10.0 µM), 92%; in assay [5] (compound 1.0 µM), 7%; in assay [5] (compound 10.0 µM), 0%; in assay [6] (compound 1.0 µM) it was 101%; in assay [6] (compound 10.0 µM), 76%. Besides, the residual activity in assay [1] (compound 1.0 µM) was 37%; in assay [1] (compound 10.0 µM) it was 5%; in assay [2] (compound 1.0 µM), -2%; in assay [2] (compound 10.0 µM) it was -3%; in assay [7] (compound 1.0 µM), 91%; in assay [7] (compound 10.0 µM), 83%. Also, the residual activity in assay [3] (compound 1.0 µM) worked out at 89%; in assay [3] (compound 10.0 µM) it was 66%; in assay [8] (compound 1.0 µM), 64%; in assay [8] (compound 10.0 µM) it was 22%.
For the molecule `COC(=O)[C@]1(O)C[C@@H]2O[C@@]1(C)n1c3ccccc3c3c4c(c5c6ccccc6n2c5c31)C(=O)NC4`, the residual activity in assay [5] (compound 10.0 µM) is -1%; in assay [6] (compound 1.0 µM), 0%; in assay [6] (compound 10.0 µM), -6%; in assay [1] (compound 1.0 µM) it was 0%; in assay [1] (compound 10.0 µM), 0%; in assay [2] (compound 10.0 µM), 0%.
